Experimental data as given in article PMC10305181, “A VEGFB-Based Peptidomimetic Inhibits VEGFR2-Mediated PI3K/Akt/mTOR and PLCγ/ERK Signaling and Elicits Apoptotic, Antiangiogenic, and Antitumor Activities” (Pharmaceuticals, 2023).
Where two headings read alike, the source gives them in different places. Bridge positions count the residues as written; N and C are the ends. Peptide text beside a SMILES is read from it.

Legend:
[1] = test system: 4T1 MCT cells; experiment: MTT assay, 4T1 MCT cells; type: cell-based, murine; settings: C-VGB3 0–1.81 μM, n = 3, read-out: IC50, proliferation
Procedure: Figure 5 Suppression of 4T1 cell proliferation and metastasis by C-VGB3 through blockade of VEGFR2 signaling pathways. (A) MTT assay was performed to investigate C-VGB3 effect on the proliferation of 4T1 tumor cells in vitro. C-VGB3 was used at concentrations 0–1.81 μM in the presence (20 ng·mL^−1) or the absence of VEGF. The control cells were treated with no peptide. After 24 and 48 h, the absorbance was measured at 570 nm utilizing an ELISA plate reader (Space Fax 2100, Awareness, Westport, CT, USA). Error bars represent ± SEM. n = 3; * p = 0.0 2, ** p = 0.001, *** and ### p = 0.0001, **** and #### p < 0.0001, ns = not significant; one-way ANOVA. (B) To evaluate the mechanism by which C-VGB3 diminished cell proliferation and metastasis, Western blot analysis was performed for 4T1 cells. […] Error bars represent ± SEM. n = 3; * p = 0.02, ** p = 0.001, *** p = 0.0001, **** p < 0.0001, ns = not significant; one-way ANOVA.
The effects of C-VGB3 and L-VGB3 on the cell survival of HUVE and 4T1 cell lines were investigated using the MTT assay, as previously described, with some modifications. […] After 24 and 48 h of incubation at 37 °C, the absorbance at 570 nm was recorded using an ELISA plate reader (Space Fax 2100, Awareness, Palm City, FL, USA). […]

[2] = test system: 4T1 cells; experiment: Annexin V/PI flow cytometry, 4T1 cells; type: cell-based, murine; settings: 0.40 μM, 24 h, VEGF 20 ng·mL^−1; control 1.80; n = 3; p < 0.0001
Procedure: (§1) An important consequence of VEGF signals is cell survival dominantly via PI3K/AKT/mTOR pathway. Thus, inhibition of VEGF signals leads to the induction of apoptosis. Accordingly, the ability of C-VGB3 to induce apoptosis was investigated. First, apoptotic endothelial and tumor cells were analyzed by flow cytometry after staining with annexin V-FITC and PI. (Figure 6A). Treatment with C-VGB3 (0.40 μM) induced significant apoptosis in both cell lines compared to the controls. […] Apoptosis induction by C-VGB3 was further characterized by the TUNEL assay, as an indicator of late apoptosis, with a confocal microscope (Figure 6B).
(§2) Annexin V/Propidium Iodide flow cytometry was performed to investigate the C-VGB3 effect on apoptosis induction, as previously described, with some modifications. […]

[3] = test system: HUVECs; experiment: Annexin V/PI flow cytometry, HUVECs; type: cell-based, human; settings: 0.40 μM, 24 h, VEGF 20 ng·mL^−1; control 9.61; n = 3; p < 0.0001; in % (unit assumed)
Procedure: as §1, §2

[4] = test system: signaling proteins in HUVECs; experiment: Western blot analysis, HUVECs; type: cell-based, human; settings: 0.40 μM
Procedure: Next, to explore the mechanisms of the antiangiogenic property of C-VGB3, canonical signaling pathways mediated by VEGFR2 were assessed in HUVECs after 24 h incubation with C-VGB3 (0.40 μM). The binding of VEGF to VEGFR2 causes autophosphorylation of its tyrosine kinase domain and increases the receptor′s expression level on the cell surface. Therefore, we evaluated the ability of C-VGB3 to suppress the levels of constitutive and phosphorylated VEGFR2 in HUVECs.
The levels of signaling proteins were investigated by the Western blot assay. 4T1 and HUVE cells stimulated by VEGF (20 ng·mL^−1) were treated with (0.40 μM) or without C-VGB3 (treatment and control groups, respectively) after starvation in a serum-free medium for 24 h. After washing with PBS buffer twice, the cells were treated with RIPA lysis buffer containing (Sigma, St. Louis, MO, USA). Bradford′s test was performed to estimate the protein concentration. Equal amounts of total protein were electrophoresed on a 10% SDS-polyacrylamide gel, separated, and then transferred to a nitrocellulose membrane. Nitrocellulose was soaked in a blocking buffer containing 5% dry milk, Tris-buffered saline, and Tween 20 (TBST) for 1 h at ambient temperature. The nitrocellulose membrane was then washed with wash buffer and treated with antibodies against VEGFR2 p-VEGFR2, AKT, p-AKT, PI3K, mTOR, p-mTOR, NF-κB, p-NFκB, P53, MDM2, Bax, Bcl2, Bid, Bim, Apaf-1, cytochrome c, caspase-9, Fas (CD95), DR4 (CD261), DR5 (CD262), caspase3, caspase7, caspase8, PARP1, ERK 1/2, p-ERK1/2, Ras, Raf, Cdk4, GSK-3β, cyclin D1, vimentin, N-cadherin, E-cadherin, FAK, p-FAK, paxillin, p-paxillin, and β-actin overnight at 4 °C. The next steps were performed as described previously. Because molecular weight ranges of target signaling proteins are very close, individual gels were run for separate signaling proteins (Figure S7).

## CC(C)C[C@@H]1NC(=O)CNC(=O)[C@H](CC(=O)O)NC(=O)[C@H](CC(=O)O)NC(=O)[C@@H]2CCCN2C(=O)[C@@H]2CCCN2C(=O)[C@H](CCCNC(=N)N)NC(=O)[C@@H](NC(=O)[C@@H](N)CCC(=O)O)CSSC[C@@H](C(=O)O)NC1=O [C-VGB3] (H-ECRPPDDGLC-OH; disulfide 2-10)
[1]; 24 h
  IC50: 560 nM
[1]; 48 h
  IC50: 370 nM
[2]
  level of apoptotic cells: 22.6%
[3]
  level of apoptotic cells: 56.62
[4]; 24 h, p < 0.0001
  AKT level: markedly reduced
  CDK4 level: decreased
  RAS level: decreased
  mTOR total expression: strongly suppressed
  p-AKT level: markedly reduced
  p-VEGFR2 formation: markedly inhibited
[4]; 24 h, p = 0.0001
  CyclinD1 level: decreased
  p-ERK1/2 level: decreased
[4]; 24 h, p = 0.001
  GSK3 expression: increased expression
  NF-κB phosphorylation: suppressed
  PI3K expression level: decreased
  RAF level: decreased
  VEGFR2 level: markedly inhibited
  mTOR phosphorylation: strongly suppressed
[4]; 24 h, p = 0.02
  ERK1/2 level: decreased
  NF-κB expression: decreased
[4]; HUVECs (first of 'respectively'), p < 0.0001
  increase in cleaved PARP1: 3.50 fold
[4]; HUVECs
  increase in Bax/Bcl2 ratio: approximately 3.35 fold
  increased level of cleaved caspase-3: 3.8 times
  increased level of cleaved caspase-7: 3.3 times
  increased level of cleaved caspase-9: 1.4 times
[4]; HUVECs, p < 0.0001
  Bid expression level: increased
[4]; HUVECs, p = 0.0001
  Apaf1: increase
  Bax level: increased
  Bcl2 expression: decrease
  P53 level: enormously increased
[4]; HUVECs, p = 0.001
  Bim level: increased
  DR4 level: increase
  MDM2 level: markedly decreased
[4]; HUVECs, p = 0.02
  DR5 level: increase
  Fas expression: slightly increased
  cytochrome c: increase
